Laboratory results as given in patent publication US8192962B2, “Processes for detecting toxic substances” (Daikin Industries, Ltd., priority 2001, dated 2012).

Tested on: Energy system protein genes
Assay: DNA chip mRNA expression in yeast, energy system protein genes (Table 4)
Type: cell-based, Saccharomyces cerevisiae S288C
How it was run: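 Untreated cultures served as reference for log-phase S288C yeast given a growth-inhibiting, non-lethal toxicant dose for 2 h at 25° C. in YPD. Gene expression was measured on a whole-genome DNA chip from Cy3/Cy5-labeled cDNA.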

With `[Cl][Hg][Cl]` [(3), HgCl2] the “The level of expressed mRNA in the presence of chemical substance/The level of expressed mRNA in the absence of chemical substance” value (yeast gene YAL060W) was 3.2, the “The level of expressed mRNA in the presence of chemical substance/The level of expressed mRNA in the absence of chemical substance” value (yeast gene YBL058W, cells incubated two hours with the chemical substance) was 0.5 and the “The level of expressed mRNA in the presence of chemical substance/The level of expressed mRNA in the absence of chemical substance” value (yeast gene YBL099W, cells incubated two hours with the chemical substance) was 3.1. The “The level of expressed mRNA in the presence of chemical substance/The level of expressed mRNA in the absence of chemical substance” value (yeast gene YBR001C, cells incubated two hours with the chemical substance) was 1.1, the “The level of expressed mRNA in the presence of chemical substance/The level of expressed mRNA in the absence of chemical substance” value (yeast gene YBR185C, cells incubated two hours with the chemical substance) was 1.3 and the “The level of expressed mRNA in the presence of chemical substance/The level of expressed mRNA in the absence of chemical substance” value (yeast gene YBR221C, cells incubated two hours with the chemical substance) was 3.2. The “The level of expressed mRNA in the presence of chemical substance/The level of expressed mRNA in the absence of chemical substance” value (yeast gene YCL040W) was 10.1, the “The level of expressed mRNA in the presence of chemical substance/The level of expressed mRNA in the absence of chemical substance” value (yeast gene YCR012W) was 5.1 and the “The level of expressed mRNA in the presence of chemical substance/The level of expressed mRNA in the absence of chemical substance” value (yeast gene YCR046C, cells incubated two hours with the chemical substance) was 1.2. The “The level of expressed mRNA in the presence of chemical substance/The level of expressed mRNA in the absence of chemical substance” value (yeast gene YCR105W, cells incubated two hours with the chemical substance) was 1.2, the “The level of expressed mRNA in the presence of chemical substance/The level of expressed mRNA in the absence of chemical substance” value (yeast gene YDL021W) was 2.4 and the “The level of expressed mRNA in the presence of chemical substance/The level of expressed mRNA in the absence of chemical substance” value (yeast gene YDL067C, cells incubated two hours with the chemical substance) was 1.6. For the same molecule, the “The level of expressed mRNA in the presence of chemical substance/The level of expressed mRNA in the absence of chemical substance” value (yeast gene YDL078C, cells incubated two hours with the chemical substance) was 1.2, the “The level of expressed mRNA in the presence of chemical substance/The level of expressed mRNA in the absence of chemical substance” value (yeast gene YDL107W, cells incubated two hours with the chemical substance) was 1.0 and the “The level of expressed mRNA in the presence of chemical substance/The level of expressed mRNA in the absence of chemical substance” value (yeast gene YDL174C) was 0.9. For the same molecule, the “The level of expressed mRNA in the presence of chemical substance/The level of expressed mRNA in the absence of chemical substance” value (yeast gene YDL181W, cells incubated two hours with the chemical substance) was 1.9, the “The level of expressed mRNA in the presence of chemical substance/The level of expressed mRNA in the absence of chemical substance” value (yeast gene YDR001C) was 2.6 and the “The level of expressed mRNA in the presence of chemical substance/The level of expressed mRNA in the absence of chemical substance” value (yeast gene YDR050C, cells incubated two hours with the chemical substance) was 2.3. For the same molecule, the “The level of expressed mRNA in the presence of chemical substance/The level of expressed mRNA in the absence of chemical substance” value (yeast gene YDR079W, cells incubated two hours with the chemical substance) was 0.8, the “The level of expressed mRNA in the presence of chemical substance/The level of expressed mRNA in the absence of chemical substance” value (yeast gene YDR178W, cells incubated two hours with the chemical substance) was 3.4 and the “The level of expressed mRNA in the presence of chemical substance/The level of expressed mRNA in the absence of chemical substance” value (yeast gene YDR231C) was 1.0. For the same molecule, the “The level of expressed mRNA in the presence of chemical substance/The level of expressed mRNA in the absence of chemical substance” value (yeast gene YDR298C, cells incubated two hours with the chemical substance) was 2.6, the “The level of expressed mRNA in the presence of chemical substance/The level of expressed mRNA in the absence of chemical substance” value (yeast gene YDR377W, cells incubated two hours with the chemical substance) was 1.3 and the “The level of expressed mRNA in the presence of chemical substance/The level of expressed mRNA in the absence of chemical substance” value (yeast gene YDR529C, cells incubated two hours with the chemical substance) was 0.9. The “The level of expressed mRNA in the presence of chemical substance/The level of expressed mRNA in the absence of chemical substance” value (yeast gene YEL024W, cells incubated two hours with the chemical substance) was 3.8, the “The level of expressed mRNA in the presence of chemical substance/The level of expressed mRNA in the absence of chemical substance” value (yeast gene YEL039C, cells incubated two hours with the chemical substance) was 1.3 and the “The level of expressed mRNA in the presence of chemical substance/The level of expressed mRNA in the absence of chemical substance” value (yeast gene YER178W) was 3.6. The “The level of expressed mRNA in the presence of chemical substance/The level of expressed mRNA in the absence of chemical substance” value (yeast gene YFL057C) was 1.5, the “The level of expressed mRNA in the presence of chemical substance/The level of expressed mRNA in the absence of chemical substance” value (yeast gene YFR053C) was 3.0 and the “The level of expressed mRNA in the presence of chemical substance/The level of expressed mRNA in the absence of chemical substance” value (yeast gene YGL018C, cells incubated two hours with the chemical substance) was 1.8. For the same molecule, the “The level of expressed mRNA in the presence of chemical substance/The level of expressed mRNA in the absence of chemical substance” value (yeast gene YGL062W) was 1.1, the “The level of expressed mRNA in the presence of chemical substance/The level of expressed mRNA in the absence of chemical substance” value (yeast gene YGL187C, cells incubated two hours with the chemical substance) was 1.6 and the “The level of expressed mRNA in the presence of chemical substance/The level of expressed mRNA in the absence of chemical substance” value (yeast gene YGL191W, cells incubated two hours with the chemical substance) was 1.4. The “The level of expressed mRNA in the presence of chemical substance/The level of expressed mRNA in the absence of chemical substance” value (yeast gene YGL205W, cells incubated two hours with the chemical substance) was 0.7, the “The level of expressed mRNA in the presence of chemical substance/The level of expressed mRNA in the absence of chemical substance” value (yeast gene YGL256W, cells incubated two hours with the chemical substance) was 1.1 and the “The level of expressed mRNA in the presence of chemical substance/The level of expressed mRNA in the absence of chemical substance” value (yeast gene YGR043C) was 3.2. For the same molecule, the “The level of expressed mRNA in the presence of chemical substance/The level of expressed mRNA in the absence of chemical substance” value (yeast gene YGR062C, cells incubated two hours with the chemical substance, 25° C., YPD medium) was 0.7, the “The level of expressed mRNA in the presence of chemical substance/The level of expressed mRNA in the absence of chemical substance” value (yeast gene YGR087C, cells incubated two hours with the chemical substance) was 1.7 and the “The level of expressed mRNA in the presence of chemical substance/The level of expressed mRNA in the absence of chemical substance” value (yeast gene YGR174C, cells incubated two hours with the chemical substance) was 0.6. For the same molecule, the “The level of expressed mRNA in the presence of chemical substance/The level of expressed mRNA in the absence of chemical substance” value (yeast gene YGR192C) was 3.8, the “The level of expressed mRNA in the presence of chemical substance/The level of expressed mRNA in the absence of chemical substance” value (yeast gene YGR244C) was 1.6 and the “The level of expressed mRNA in the presence of chemical substance/The level of expressed mRNA in the absence of chemical substance” value (yeast gene YGR254W) was 3.8. For the same molecule, the “The level of expressed mRNA in the presence of chemical substance/The level of expressed mRNA in the absence of chemical substance” value (yeast gene YHR179W) was 2.6, the “The level of expressed mRNA in the presence of chemical substance/The level of expressed mRNA in the absence of chemical substance” value (yeast gene YIL160C) was 2.3 and the “The level of expressed mRNA in the presence of chemical substance/The level of expressed mRNA in the absence of chemical substance” value (yeast gene YIR031C, cells incubated two hours with the chemical substance) was 0.6. For the same molecule, the “The level of expressed mRNA in the presence of chemical substance/The level of expressed mRNA in the absence of chemical substance” value (yeast gene YJL052W) was 4.0, the “The level of expressed mRNA in the presence of chemical substance/The level of expressed mRNA in the absence of chemical substance” value (yeast gene YJL121C, cells incubated two hours with the chemical substance) was 1.9 and the “The level of expressed mRNA in the presence of chemical substance/The level of expressed mRNA in the absence of chemical substance” value (yeast gene YJL166W, cells incubated two hours with the chemical substance) was 1.6. The “The level of expressed mRNA in the presence of chemical substance/The level of expressed mRNA in the absence of chemical substance” value (yeast gene YJL216C, cells incubated two hours with the chemical substance) was 2.2 and the “The level of expressed mRNA in the presence of chemical substance/The level of expressed mRNA in the absence of chemical substance” value (yeast gene YJR009C) was 5.6.
